Test results taken from patent US12385042B2, “Cell-penetrating peptides” (VECTIOPEP OÜ, priority 2019, dated 2025).
“Also recorded” adds a separate entry of the source. Where two headings read alike, the source gives them in different places. Where a SMILES comes first, the peptide text is derived from it. Bridges are numbered along the chain shown (N, C = ends). Roman numbers before positions name the chains, in order. [ ]: non-standard residue; d: D form. The star is where a group is joined. Arachidoyl = CCCCCCCCCCCCCCCCCCCC(=O)*; Stearoyl = CCCCCCCCCCCCCCCCCC(=O)*; Orn = NCCC[C@H](N)C(=O)O

What was measured:
[1] = test system: U87 MG-luc2 human glioma cells, stably expressing luc2; assay: Luciferase gene downregulation by CPP/siRNA (siLuc2) complexes; type: cell-based; settings: for luciferase downregulation efficiency (in words) / Red (%) (reduction, based on remaining luminescence on U87 cells post-treatment): CPP/siRNA complexes; for luciferase downregulation efficiency (in words): comparison between CPPs; for Red (%) (reduction, based on remaining luminescence on U87 cells post-treatment): siRNA against luciferase; for IC50: read-out: IC50 (siRNA concentration), luciferase downregulation; for remaining reporter activity: molar ratio 30 (MR30, peptide to siRNA), untreated cells 100%
Procedure, shortened: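 U87-luc2 cells in serum-containing medium got peptide/siLuc2 complexes formed in water (pH 5.3-6.3, MR 40:1, 1 h RT) at 25 nM siRNA for 4 h at 37 °C, then 20 h more. Lysate luminescence normalized to protein; in other runs, MR30/10 nM in HEPES-FBS, or varied MR at 50 nM, vs untreated (100%).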

[2] = test system: CHO stably expressing green fluorescent protein (GFP); assay: GFP gene downregulation by CPP/siGFP complexes (lysate fluorescence, FACS, confocal); type: cell-based; settings: for GFP signal in confocal images: live cells treated with CPP/siGFP complexes
Procedure, shortened: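 CHO-GFP cells (5×10^5/well) in serum-containing medium exposed 4 h at 37 °C to CPP/siGFP complexes (peptide:siRNA molar ratio 40:1, siRNA 100 nM final), then 44 h further culture. GFP read as protein-normalized lysate fluorescence, by FACS (fraction below 0.1% untreated-cell signal), or by confocal imaging after 48 h.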

murine red blood cells = assay: Membrane activity assay on murine red blood cells: hemolysis; type: cell-based, mouse; settings: for HC50 CPP/siRNA complex (peptide concentration): CPP/siRNA complexes at MR30; for HC50 Free peptide: pH 7.5
Method: For evaluation of membrane activity of peptides, hemolysis assay was used. For this whole blood was collected from mouse (adult, BALB/c) saphenous vein into a heparinized collection tube. Blood was centrifuged (2300× g, 15 min) to separate cells (red blood cells-RBC) from the plasma. RBCs were washed according to following procedures.
RBCs were washed with 10 ml 0.9% NaCl saline and centrifuged (600× g, 15 min). Supernatant was discarded after each centrifugation. This was repeated at least 3 times. RBCs were re-suspended in 5 ml saline and distributed equally to tubes and centrifuged (600× g, 15 min). The cells were washed and re-suspended in 2× PBS with the required pH (pH 5.5-7.5). The hemoglobin content in stocks was measured after lysis of cells with equal volume of 0.1% Triton X100 supplemented with 5% glucose. The cell suspension was diluted accordingly for each pH value to obtain similar concentration range of hemoglobin in stocks. To each 100 ul of peptide solution 100 ul of 10% glucose was added, mixed, and equal volume (200 ul) of RBC in 2× PBS were added and gently mixed. Peptide solution with RBCs was incubated at 37° C. for 1 h with gentle mixing (max 300 rpm) after which samples were centrifuged to pellet intact cells from the solution. Hemoglobin from lysed cells was determined from each sample from the supernatant on transparent 96-well plates by measuring the absorbance at 540 nm.
Controls were incubated in similar manner as samples. As a non-hemolysis control mQ supplemented with glucose (0%) was used and for hemolytic control 0.1% TritonX-100 with glucose (100%) was used (cells are suspended in 2× PBS before addition). Final percent was calculated as follows: […]
For hemolytic concentration determination 2× PBS at pH 7.5 was used for incubation and 1× PBS at pH 7.5 was used for washing. Everything else is as described in previous paragraph.

organs of BALB/c mice = assay: Gene delivery in vivo (CPP/pDNA, i.v., organ luminescence); parameters: species or system mouse; settings: for reporter gene expression in organs after i.v. CPP/pDNA (in words): CR2 or CR4, 50 μg or 20 μg pDNA, 24 h
Method: For in vivo pDNA delivery studies BALB/c mice were used. Each animal received a single […] intravenous (i.v.) injection of the complexes at CR2 or CR4. Two doses of pDNA […] were used. After 24 hr, the mice were sacrificed using cervical dislocation, and whole organs were harvested and snap-frozen on dry ice. The organs were homogenized, and luminescence was measured.

[3] = complexes formed at MR30, average

| SMILES | luciferase downregulation efficiency (in words) ([1]; listed as H6-C20) | Red (%) (reduction, based on remaining luminescence on U87 cells post-treatment) [1] | downregulation of luciferase activity ([1]; H6 series, effect of fatty acid length) | IC50 ([1]; complexes formed at MR30, average, listed as H6-C20) | IC50 [1, 3] | IC50 ([1]; complexes formed at MR30 and MR40, similar average value) | remaining reporter activity [1] | GFP signal in confocal images [2] | hemolytic concentration, fold higher than NF71 (murine red blood cells) | HC50 CPP/siRNA complex (peptide concentration) (murine red blood cells) | HC50 times higher than that of NF55 (murine red blood cells; free peptide) | HC50 Free peptide (murine red blood cells; free peptide) | pH dependent hemolytic activity (in words) (murine red blood cells; peptide 0.75 uM, buffer pH 5.5-7.5) | reporter gene expression in organs after i.v. CPP/pDNA (in words) (organs of BALB/c mice) | luciferase downregulation efficiency (in words) [1] | IC50 ([1]; complexes formed at MR20) | downregulation of GFP (average, cell lysate fluorescence) ([2]; siGFP 100 nM) | hemolytic activity of free peptide (in words) (murine red blood cells; free peptide, up to 10 uM) | transfection level in liver at CR2 compared to CR4 (organs of BALB/c mice; liver) | transfection level in lungs at CR2 compared to CR4 (organs of BALB/c mice; lungs) |
| --- | --- | --- | --- | --- | --- | --- | --- | --- | --- | --- | --- | --- | --- | --- | --- | --- | --- | --- | --- | --- |
| CCCCCCCCCCCCCCCCCCCC(=O)N[C@@H](Cc1c[nH]cn1)C(=O)N[C@@H](Cc1c[nH]cn1)C(=O)N[C@@H](Cc1c[nH]cn1)C(=O)N[C@@H](Cc1c[nH]cn1)C(=O)N[C@@H](Cc1ccc(O)cc1)C(=O)N[C@@H](Cc1c[nH]cn1)C(=O)N[C@@H](Cc1c[nH]cn1)C(=O)NCC(=O)NCCC[C@H](N)C(=O)N[C@H](C(=O)N[C@@H](CC(C)C)C(=O)N[C@@H](CC(C)C)C(=O)N[C@@H](CCCCN)C(=O)N[C@@H](C)C(=O)N[C@@H](CC(C)C)C(=O)N[C@@H](CCCCN)C(=O)N[C@@H](C)C(=O)N[C@@H](CC(C)C)C(=O)N[C@@H](C)C(=O)N[C@@H](CCCCN)C(=O)N[C@@H](C)C(=O)N[C@H](C(=O)N[C@@H](CC(C)C)C(N)=O)[C@@H](C)CC)[C@@H](C)CC [NF70] (I: H-[Orn]ILLKALKALAKAIL-NH2 / II: Arachidoyl-HHHHYHHG; amide I:1-II:C) | equally strong downregulation of the luciferase gene; also recorded: at MR40 it was even more efficient than PF6 or H4-C18 | 92% | up to 95% | 14.7 nM | 14.8 nM | 14.7 to 14.8 nM | 15% | detected GFP signal was the lowest | 3.6 | 8.3 µM | 2.5 times | 4.3 µM | the increase was less substantial | very low transfection levels in vivo |  |  |  |  |  |  |
| CCCCCCCCCCCCCCCCCC(=O)N[C@@H](Cc1c[nH]cn1)C(=O)N[C@@H](Cc1c[nH]cn1)C(=O)N[C@@H](Cc1ccc(O)cc1)C(=O)N[C@@H](Cc1c[nH]cn1)C(=O)N[C@@H](Cc1c[nH]cn1)C(=O)NCC(=O)NCCC[C@H](N)C(=O)N[C@H](C(=O)N[C@@H](CC(C)C)C(=O)N[C@@H](CC(C)C)C(=O)N[C@@H](CCCCN)C(=O)N[C@@H](C)C(=O)N[C@@H](CC(C)C)C(=O)N[C@@H](CCCCN)C(=O)N[C@@H](C)C(=O)N[C@@H](CC(C)C)C(=O)N[C@@H](C)C(=O)N[C@@H](CCCCN)C(=O)N[C@@H](C)C(=O)N[C@H](C(=O)N[C@@H](CC(C)C)C(N)=O)[C@@H](C)CC)[C@@H](C)CC [NF71] (I: H-[Orn]ILLKALKALAKAIL-NH2 / II: Stearoyl-HHYHHG; amide I:1-II:C) |  | 88% |  |  | 6.8 nM |  | 13% | detected GFP signal was the lowest |  | 2.5 µM |  | 1.2 µM |  | high reporter gene expression in liver and lungs | most efficient peptides even at low MRs | 11.1 nM | lower than with H6^1-C20 or H8-C20 | more hemolytic than its parent peptide NF55 | 7 fold | 3 fold |
